Patent publication US20210030725A1, “RESTORATION OF TRANSMEMBRANE COPPER TRANSPORT” (The Board of Trustees of the University of Illinois, priority 2018, published 2021)

Legend:
[1] = Stoichiometric metal competition, ICP-MS quantification of extracted hinokitiol-bound metal; type: binding; settings: 1 mM each divalent metal, 1 mM hinokitiol, 10 mM Mes/Tris, 1:1 MeOH:H2O, pH 7.0, N=6
Protocol: Hinokitiol binds to and sequesters copper with a greater affinity than any other metal (including iron). Stoichiometric competition experiments with 1 mM of each divalent metal and 1 mM hinokitiol in a 10 mM Mes/Tris buffer in 1:1 MeOH:H2O at pH=7.0. Hinokitiol binds many metals by ICP-MS quantification of extracted hinokitiol-bound metal. The metal in the organic layer was determined to be in the order of Cu>Fe>Mn≈Zn>Co>Ni. ND=Not detected. N=6. (FIG. 2)

[2] = Hinokitiol-promoted release of divalent metals from POPC liposomes (PhenGreen assay); settings: hinokitiol 10 μM
Protocol: Hinokitiol-promoted release of different divalent metals from POPC liposomes was performed by tracking the quenching of PhenGreen (Fisher P14312) similar to previously reported. Liposomes were prepared as described above with an internal buffer consisting of either 10 mM ascorbate in a 5 mM MES/Tris buffer at pH=7.0 (for Fe^2+), 10 mM citrate in a 5 mM MES/Tris buffer at pH=7.0 (for Cu^2+), or a 5 mM MES/Tris buffer at pH=7.0 (for Mn^2+, Co^2+, and Zn^2+). In all cases, liposomes were prepared using 5 mM of either FeCl2, MnCl2, CoCl2, NiCl2, ZnCl2, or CuCl2 added to the internal buffer. […] The fluorescence was monitored with excitation at 500 nm and emission at 530 nm over 1 hour. After one hour, the liposomes were lysed with Triton-X and the fluorescence was recorded. […] The DMSO-treated and hinokitiol-treated liposomes had similar fluorescence quenching levels after lysis. The total amount of metal efflux was determined using standard curves of fluorescence quenching in external buffer with 10 μM PhenGreen and known concentrations of each metal. The t1/2 values were calculated using an asymptotic fit in OriginPro. […] Hinokitiol (10 μM) rapidly promotes the efflux of multiple divalent metals from POPC liposomes as determined by a PhenGreen assay. […] Quantification of metal release was done by comparison of fluorescence quenching to a standard curve for each metal. […]

[3] = UV-vis titration with copper (II) chloride; type: binding
[4] = Partitioning of chelator:copper complex between octanol and water; type: physicochemical; settings: hinokitiol:copper complex
Protocol: Biophysical experiments were performed to better understand the capacity of hinokitiol to bind and transport copper. […] Unlike the aforementioned water-soluble copper chelators, the hinokitiol:copper complex primarily partitioned into the nonpolar solvents over water (FIG. 4A). To expand, 95% of the hinokitiol:copper complex partitioned into octanol over water as opposed to >85% of the currently available water-soluble chelators partitioned into water over octanol.

[5] = Copper (II) transport across liposomal membranes, hinokitiol vs water-soluble chelators; settings: relative to controls
[6] = test system: Δctr1Δctr3 yeast missing the passive copper transporters Ctr1Ctr3; test: Growth rescue of Δctr1Δctr3 yeast; type: cell-based, Saccharomyces cerevisiae; settings: respiratory and non-permissive conditions, copper dependent, maximum at intermediate hinokitiol concentrations
Protocol: Growth rescue in yeast was performed using 10 μM hinokitiol in SD media in a 96-well plate unless otherwise noted. Wild type and DELctr1DELctr3 yeast strain controls treated with vehicle (DMSO) or hinokitiol were performed under identical conditions using a normal iron-containing, no-copper containing SD media, supplemented with 1.0 μM CuCl2. Yeast were grown overnight in YPD media and diluted at an OD600 of 0.1 in SD media, diluted 10-fold, and incubated at 30° C. with continuous shaking (200 rpm). The OD600 was obtained 48 hours after inoculation unless otherwise noted. Small molecule dose-response with hinokitiol was determined by addition of the small molecule (40× stock solution in DMSO) to give the indicated final concentrations. Copper dose-response studies were performed in low copper SD media without CuCl2 containing the indicated concentrations of hinokitiol (from a 40× stock solution in DMSO). For dose-dependent hinokitiol-promoted rescue at increasing dosages of CuCl2, SD media was made containing the indicated concentrations of CuCl2 from 1000× CuCl2 stocks before adding hinokitiol (40× stock solution in DMSO) to give the indicated final concentrations. […]

[7] = test system: iron transporter-deficient yeast missing the FetFtr1 transport complex; test: Growth rescue of iron transporter-deficient yeast; type: cell-based, Saccharomyces cerevisiae; settings: respiratory and non-permissive copper conditions
[8] = test system: DELccc2 yeast strain missing the intracellular ATP-driven copper pump CCC2; test: Growth rescue of DELccc2 yeast on solid media; type: cell-based
Protocol: Growth rescue in yeast was performed on SD-agar plates in 50 mM MES/Tris buffer at pH=7.0 containing 2% agarose gel, and 10 μM hinokitiol (from 40× stock in DMSO). Wild type and DELccc2 yeast strain controls treated with vehicle (DMSO) were performed under identical conditions using a no-copper containing SD media supplemented with 0.5 μM CuCl2 in the absence of hinokitiol. Yeast were grown overnight in YPD media and diluted to an optical density at 600 nm (OD600) of 1.0 in low copper SD media before 10-fold serial dilution and inoculation of these yeast suspensions (10 μL per dot) onto the low copper SD-agar plates described above containing either DMSO vehicle or hinokitiol (10 μM from 40× DMSO stock). For disc diffusion assays, yeast were grown overnight in YPD media and diluted to an OD600=0.1 in low copper SD media and streaked onto low copper SD-agar plates containing 0.5 μM CuCl2. Disc diffusion assays were performed using either DMSO or 10 mM stock solutions (in DMSO) of hinokitiol on low copper SD-agar plates containing 0.5 μM CuCl2 streaked with the appropriate yeast strain (from OD600=0.1 in low copper SD media). Images were taken 48 hours after inoculation and incubation at 30° C. unless otherwise noted. […]

[9] = test system: DELccc2 yeast strain missing the intracellular ATP-driven copper pump CCC2; test: Growth rescue of DELccc2 yeast in liquid culture; type: cell-based
Protocol: Growth rescue in yeast was performed using 10 μM hinokitiol in SD media in a 96-well plate unless otherwise noted. Wild type and DELccc2 yeast strain treated with vehicle (DMSO) or hinokitiol were performed under identical conditions using a normal iron-containing, no-copper containing SD media, this time supplemented with 1.5 or 2 μM CuCl2. Yeast were grown overnight in YPD media and diluted at an OD600 of 0.1 in SD media, diluted 10-fold, and incubated at 30° C. with continuous shaking (200 rpm). The OD600 was obtained 48 hours after inoculation unless otherwise noted. Small molecule dose-response with hinokitiol was determined by addition of the small molecule (40× stock solution in DMSO) to give the indicated final concentrations. Copper dose-response studies were performed in low copper SD media without CuCl2 containing the indicated concentrations of hinokitiol (from a 40× stock solution in DMSO). For dose-dependent hinokitiol-promoted rescue at increasing dosages of CuCl2, SD media was made containing the indicated concentrations of CuCl2 from 1000× CuCl2 stocks before adding hinokitiol (40× stock solution in DMSO) to give the indicated final concentrations. […]

With `CC(C)c1cccc(=O)c(O)c1` [hinokitiol, 2-hydroxy-6-propan-2-ylcyclohepta-2,4,6-trien-1-one] the “order of metal in the organic layer (extracted hinokitiol-bound metal)” value [1] was “Cu>Fe>Mn≈Zn>Co>Ni”, the “transport of MnII from liposomes” value [2] was “unable to transport” and the “copper binding (complex formation, shift in UV-vis spectra)” value [3] was “readily binds copper”. For the same molecule, the “share of copper complex partitioned into octanol over water” value [4] was 95%, the “copper (II) transport across liposomal membranes” value [5] was “transported copper (II) across liposomal membranes” and the “restoration of yeast growth” value [6] was “dose-dependently restored yeast growth up to wild type control levels”. The “restoration of yeast growth” value [7] was “unable to restore growth”, the growth rescue [8] was “Vigorous rescue” and the growth rescue [9] was “Vigorous rescue”.
